In patent publication US20160199463A1, “HDAC2 DEFENDS VASCULAR ENDOTHELIUM FROM INJURY” (The Johns Hopkins University, priority 2014, published 2016):

What was measured:
HDAC = details: cited from earlier work
[1] = test system: arginase activity in HAECs; assay: Arginase activity assay (urea production) in HAEC lysates; assay type: cell-based, human
Description: HAEC were lysed using RIPA buffer (50 mM of Tris.HCl, pH 7.5, 0.1 mM EDTA, 0.1% Triton X-100, and protease inhibitor), and centrifuged for 30 min at 14,000 g at 4° C. 50 μL (50-100 μg) of supernatant was added to 75 μl of 10 mM MnCl2 made in Tris-HCl (50 mM, pH 7.5) and heat activated by incubating at 55-60° C. for 10 min. 50 μL of L-Arginine that was prepared in 300 mM Tris-HCL, pH 9.7 were then added to the activated cell lysates to achieve final concentrations of 150 mM and incubated at 37° C. for 3 hrs with shaking. The reaction was stopped by adding 400 μL of an acid solution (H2SO4: H3PO4: H20=1:3:7). For colorimetric determination of urea, α-isonitrosopropiophenone (25 μL, 9% in ethanol) was added and further heated at 100° C. for 45 min. Samples were allowed to cool at room temperature in the dark for 10 min and urea concentration was determined by measuring absorbance at 550 nm using a spectrophotometer.

[2] = test system: arginase activity in mice aortas; assay: Arginase activity in isolated segments of mice aorta; assay type: cell-based, mouse; details: TSA 200 nmol/L
[3] = test system: aortic rings from Arg2−/− mice; assay: Force tension (wire) myography, vascular relaxation of aortic rings from Arg2-/- mice; assay type: cell-based, mouse; details: Arg2−/− mice; TSA 200 nmol/L; n=6
Description: (§1) Mouse aorta was isolated and cleaned in ice-cold Krebs-Ringer-bicarbonate solution containing the following (in mM): 118.3 NaCl, 4.7 KCl, 1.6 CaCl2, 1.2 KH2 PO4, 25 NaHCO3, 1.2 MgSO4, and 11.1 dextrose. The aorta was immersed in a bath filled with constantly oxygenated Krebs buffer at 37° C. Equal size thoracic aortic rings (2 mm) were mounted using a microscope, ensuring no damage to the smooth muscle or endothelium. One end of the aortic rings was connected to a transducer, and the other to a micromanipulator. Aorta was passively stretched to an optimal resting tension using the micromanipulator, after which a dose of 60 mM KCl was administered, and repeated after a wash with Krebs buffer. After these washes, all vessels were allowed to equilibrate for 20-30 min in the presence of indomethacin (3 μM). Phenylephrine (1 μM) was administered to induce vasoconstriction. A dosedependent response (1 nM to 10 μM), with the muscarinic agonist, ACH or nitric oxide donor, SNP, was then performed as necessary. The responses were repeated in the presence of inhibitors. Relaxation responses were calculated as a percentage of tension following pre-constriction. Sigmoidal dose-response curves were fitted to data with the minimum constrained to 0. Two to four rings were isolated from each animal and the number of animals in each group (n) was 6.

Arg2 mRNA [4] = assay: Arg2 mRNA in isolated mice aorta (real-time PCR); assay type: cell-based, mouse; details: TSA 200 nmol/L, 18 hours
Description: Total RNA was extracted from segments of mice aortas and HAEC using Trizol and PureLink (Invitrogen). RNA was then reverse transcribed with oligo dT primers to obtain cDNA and quantitative real time PCR (Applied Biosystems) was performed using SYBR Green Supermix mix (Applied Biosystems) whereas semiquantitative RTPCR was performed using conventional Biorad PCR machine and the following primer sets:
Real Time PCR data are expressed as “fold change”, which is calculated as 2-ΔΔCt.

Arg2 = Arg2 protein expression in HAECs (Western blot); assay type: cell-based, human
Description: (§2) After 48 hrs of HAEC cells transfection, cells were lysed in ice cold RIPA lysis buffer consisting of 20 mM Tris-HCl at pH 7.5, 150 mM NaCl, 1 mM EDTA, 1 mM EGTA, 1% NP40, 1% sodium deoxycholate, 1 mM Na3VO4, 2.5 mM sodium pyrophosphate, 1 mM 3-glycerophosphate, 1 μg/mL leupeptin, and a 1:1000 diluted protease inhibitor cocktail (Sigma). For immunoprecipitation studies, whole cell lysate lysates were centrifuged at 14,000×g and supernatants were precleared by incubation with Protein A/G-agarose beads for 2 h at 4° C. with rocking. Agarose beads were then pelleted by centrifugation at 1,000×g. FLAG-Arg2 in precleared lysates were immunoprecipitated by incubation overnight at 4° C. with rocking following addition of anti-FLAG antibody (10 μl). Immune complexes were eluted in 2×SDS sample buffer by boiling for 5 minutes before loading into SDS-PAGE. Western blotting analysis was performed by transferring the SDS gel onto a PVDF membrane and visualized using secondary antibodies conjugated to alkaline phosphatases.

Arg2 mRNA [5] = assay: Arg2 mRNA in HAECs (RT-PCR, real-time PCR); assay type: cell-based, human; details: preincubated with TSA
Description: Total RNA was extracted from segments of mice aortas and HAEC using Trizol and PureLink (Invitrogen). RNA was then reverse transcribed with oligo dT primers to obtain cDNA and quantitative real time PCR (Applied Biosystems) was performed using SYBR Green Supermix mix (Applied Biosystems) whereas semiquantitative RTPCR was performed using conventional Biorad PCR machine and the following primer sets: Real Time PCR data are expressed as “fold change”, which is calculated as 2-ΔΔCt.

[6] = test system: aortic rings of wild-type mice; assay: Force tension (wire) myography, vascular relaxation of isolated wild-type mouse aortic rings; assay type: cell-based
Description: as §1

NO production in HAECs = assay: Nitric oxide production in HAECs (DAF-DA fluorescence, Siever's NO analyzer); assay type: cell-based, human; details: TSA 1 μmol/L
Description: Nitric Oxide levels in HAEC were determined using DAF-DA as per manufacture instructions (Life Sciences). Briefly, cells were loaded with DAF-DA (5 μM) for 20 min and washed 3 times with PBS and incubated for another 30 min in phenol-free media. Fluorescence was determined using a Nikon TE-200 epifluorescence microscope. Images were captured with a Rolera EMC2 camera (Q-Imaging, BC, Canada) with Velocity software (PerkinElmer, Lexington, Mass.). NO production in the cell culture media was also determined by measuring Nitrite levels using a Siever's NO analyzer. NO radicals were measured in cell media collected after 24 hours of treatment using the Oxiselect assay (Cell Biolabs, San Diego, Calif.).

eNOS = eNOS expression in HAECs (immunoblot); assay type: cell-based, human; details: 1 μmol/L, 18 hours
Description: as §2

In the case of `CC(/C=C/C(=O)NO)=C\[C@@H](C)C(=O)c1ccc(N(C)C)cc1` [TSA, trichostatin A], the IC50 (HDAC) is given as 1.8 nM, the “HAEC arginase activity, short-term” value ([1]; 30 minutes, nicotinamide 5 mmol/L, TSA 1 μmol/L) is given as “no effect” and the total arginase activity ([1]; TSA 400 nmol/L, 18 hours) is given as “increased”. The arginase activity [2] was “robust increase”, the “Emax endothelial cell-dependent vasorelaxation” value [3] was 66.3±7.54% and the “Arg2 mRNA” value (Arg2 mRNA [4]) was “substantially upregulated”. For the same compound, the “Arg2 expression, broad-spectrum HDAC inhibitors” value (Arg2; 1 μmol/L, 18 hours) was “upregulated”, the “concentration of maximum effect on Arg2 protein” value (Arg2; 18 hours) was 1 µmol/L and the “Arg2 protein expression, dose dependence” value (Arg2; TSA 0, 0.1, 0.3, and 1 μmol/L, 18 hours) was “dose-dependent fashion”. For the same compound, the Arg2 expression (Arg2; TSA 400 nmol/L, 18 hours) was “increased”, the “time at which increase in Arg2 protein expression is observed” value (Arg2; TSA 1 μmol/L) was 8 h and the “Arg2 mRNA” value (Arg2 mRNA [5]) was “substantially upregulated”. For the same compound, the “SNP-mediated (endothelium-independent) vasorelaxation versus vehicle-only control” value ([6]; TSA 200 nmol/L or MGCD0103 1 μmol/L, 18 hours) was “no significant difference”, the “Emax acetylcholine-mediated (endothelium-dependent) vasorelaxation” value ([6]; TSA 200 nmol/L, 18 hours preincubation, n=6) was 31.24±7.8% and the NO production (NO production in HAECs) was “significantly decreased”. The eNOS expression (eNOS) was “negligible effect”.
